Assay results reported in patent EP2157088A1, “INDICYANINE DYES AND THE DERIVATIVES THEREOF FOR ANALYSING BIOLOGICAL MICROMOLECULES” (UCHREZHDENIE ROSSIISKOI AKADEMII NAUK INSTITUT …, priority 2007, dated 2008).
Where a name gives a salt, the structure may show the parent alone.

Tests used:
Type in all cases: physicochemical
[1] = Relative efficiency of fluorescence / absolute sensitivity of label, normalized to dye A30 in PBS; conditions: for Sensitivity of record 655/ 690: excitation 655 nm, record 690 nm; for Sensitivity of record 635/ 670: excitation 635 nm, record 670 nm; for Sensitivity of record max/ max: excitation and record in absorption and fluorescence maxima, ε*Φ normalized to A30 in PBS
Source text: The data obtained were as follows: • on excitation and record in absorption and fluorescence maxima, the relative efficiency of fluorescence exceeds 0.80 for dyes (A10), (A22), (A23), (A25), and (A30) in methanol and for dyes (A22), (A25), and (A30) in PBS (Table 1, Fig. 4), whereas for dyes of formula (I) (R1 = -CH3, R2= R6= -SO3^-; R3= -(CH2)5COOH, R4= -C2H5; R5= -H) the values are 0.69 in methanol and 0.67 in PBS; • on excitation at wavelength 655 nm and record at 690 nm, the relative efficiency of fluorescence exceeds 0.25 for dyes (A25) and (A30) in methanol and is higher than 0.18 for dyes (A24) and (A30) in PBS (Table 1, Fig. 5), whereas for dyes of formula (I) (R1 = -CH3, R2 = R6= -SO3^-; R3= -(CH2)5COOH, R4= -C2H5; R5= -H) the values are 0.18 in methanol and 0.11 in PBS; • on excitation at wavelength 635 nm and record at 670 nm, the relative efficiency of fluorescence exceeds 0.50 for dyes (A1), (A11), (A23) in methanol and is higher than 0.45 for dyes (A22), (A25), and (A30) in PBS (Table 1, Fig. 6), whereas for dyes of formula (I) (R1= -CH3, R2= R6= -SO3^-; R3= -(CH2)5COOH, R4= -C2H5; R5= -H) the values are 0.44 in methanol and 0.38 in PBS.
Term sensitivity of fluorescent analysis is defined by the absolute sensitivity of label that may be represented as the product of molar extinction coefficient by quantum efficiency of fluorescence (ε*Φ). Thus, there are determined the absolute sensitivity of indodicarbocyanines (A1-A30, B1-B7) in appropriate absorption and fluorescence maxima in methanol and in aqueous phosphate buffered saline. The values are normalized to the maximal value obtained for dye (A30) in PBS (Table 1). In methanol, dyes (A10, A22, A23, A25, A30) have the upper-range of absolute sensitivity, but in PBS, dyes (A10, A22, A25, A29, A30) have the maximal values of sensitivity (Fig. 4).
To determine the most appropriate dyes for instrument setting, there are measured the relative efficiency of fluorescence of dyes at wavelength of excitation and record of the instrument (655 nm. / 690 nm). The maximal values appear to be specific to dyes (A25) and (A30) in methanol, and to dyes (A19, A22, A25, A29, A30) in PBS (Table 1, Fig. 5).
There are also measured the relative efficiency of fluorescence at wavelength of excitation and record of the instrument (635 nm / 670 nm). The maximal values appear to be specific to dyes (A1, A10, A11, A23) in methanol, and to dyes (A10, A22, A25, A29, A30) in PBS (Table 1, Fig. 6).

[2] = Quantum efficiency of fluorescence, measured versus a reference dye
Procedure: For all indodicarbocyanine dyes (I) (A1) - (A30) and (B1) - (B7) of the invention, there are determined the quantum efficiency of fluorescence in methanol and in aqueous phosphate buffered saline (Table 1, Fig. 3). The measurements are performed versus dyes of formula (I) (R1= -CH3, R2= R6= -SO3^-; R3= -(CH2)5COOH, R4= -C2H5, R5= -H) whose quantum efficiency of fluorescence in PBS is 0.27 (Mader O., K. Reider, H.-J. Egelhaaaf, R, Fischer, R. Brock, Structure Properties of Pentamethine Indocyanine Dyes: Identification of New Dyes for Life Science Applications. Bioconjugate Chem, 2004, vol. 15, pp. 70-78). In methanol, dyes (A10, A22, A25, A29, A30) have the upper-range of quantum efficiency of fluorescence (Φ ∼ 0.3), but in PBS, dyes (A10, A22, A25, A29, A30) have the maximal Φ -value.

[3] = Molar extinction coefficient in methanol and PBS
Procedure: For all indodicarbocyanine dyes (I) (A1) - (A30) and (B1) - (B7) of the invention, there are determined the molar extinction coefficients in methanol and in aqueous phosphate buffered saline (PBS) (10 mM potassium phosphate buffer, sodium chloride concentration is 0.9%, pH 7.4). In methanol, indodicarbocyanine (A1, A8, A10-A12, A17, A23) has the upper-range of molar extinction coefficient (ε >[…]). In aqueous phosphate buffered saline (PBS), dyes (A10, A23, A30) have the maximal ε-value (Fig. 2).

Compound | Sensitivity of record 655/ 690 ([1]; PBS) | Φ (quantum efficiency of fluorescence) ([2]; MeOH) | Φ (quantum efficiency of fluorescence) ([2]; PBS) | also measured
CC[N+]1=C(/C=C/C=C/C=C2/N(CCCCS(=O)(=O)O)c3ccc(S(=O)(=O)[O-])cc3C2(C)CCCCC(=O)O)C(C)(C)c2cc(S(=O)(=O)O)ccc21 (centres unmarked) [A25, 5,5'-disulfo-3-(4-carboxybutyl)-N-(4-sulfobutyl)-3,3',3'-trimethyl-N'-ethylindodicarbocyanine, disodium salt] | maximal |  |  | 
CC1(C)C(C=CC=CC=C2N(CCCCS(=O)(=O)O)c3ccccc3C2(C)CCCCC(=O)O)=[N+](CCCCS(=O)(=O)[O-])c2ccccc21 (centres unmarked) [A10, N,N'-di(4-sulfobutyl)-3-(4-carboxybutyl)-3,3',3'-trimethylindodicarbocyanine, sodium salt] |  | ~0.3 | maximal | Sensitivity of record 635/ 670 ([1]; MeOH): maximal; Sensitivity of record 635/ 670 ([1]; PBS): maximal; Sensitivity of record max/ max ([1]; PBS): maximal
CCN1C(=CC=CC=CC2=[N+](CC)c3ccc(S(=O)(=O)[O-])cc3C2(C)CCCCC(=O)O)C(C)(C)c2cc(S(=O)(=O)[O-])ccc21.[Na+] (centres unmarked) [A22, 5,5'-disulfo-N,N'-diethyl-3-(4-carboxybutyl)-3,3',3'-trimethylindodicarbocyanine, sodium salt] | maximal | ~0.3 | maximal | 
Cc1ccc2c(c1)C(C)(CCCCC(=O)O)C(C=CC=CC=C1N(CCCCS(=O)(=O)[O-])c3ccccc3C1(C)C)=[N+]2CCCCS(=O)(=O)[O-].[Na+] (centres unmarked) [A17, N,N'-di(4-sulfobutyl)-3-(4-carboxybutyl)-3,3',3',5-tetramethylindodicarbocyanine, sodium salt] |  |  |  | molar extinction coefficient (ε) ([3]; in methanol): > 220000 M⁻¹ cm⁻¹
CC1(C)C(/C=C/C=C/C=C2/N(CCCCS(=O)(=O)O)c3ccccc3C2(C)CCCCC(=O)O)=[N+](CCCCS(=O)(=O)O)c2ccc(S(=O)(=O)[O-])cc21 (centres unmarked) [A23, N,N'-di(4-sulfobutyl)-3-(4-carboxybutyl)-5'-sulfo-3,3',3'-trimethylindodicarbocyanine, disodium salt] |  |  |  | molar extinction coefficient (ε) ([3]; in aqueous phosphate buffered saline (PBS)): maximal
CCN1/C(=C/C=C/C=C/C2=[N+](CCCCS(=O)(=O)O)c3ccc(S(=O)(=O)O)cc3C2(C)C)C(C)(CCCCC(=O)O)c2cc(S(=O)(=O)[O-])ccc21 (centres unmarked) [A29, 5,5'-disulfo-3-(4-carboxybutyl)-N'-(4-sulfobutyl)-3,3';3'-trimethyl-N-ethylindodicarbocyanine, disodium salt] | maximal |  | maximal | Sensitivity of record 635/ 670 ([1]; PBS): maximal; Sensitivity of record max/ max ([1]; PBS): maximal
CC1(C)C(=CC=CC=CC2=[N+](CCCCS(=O)(=O)[O-])c3ccc(S(=O)(=O)[O-])cc3C2(C)CCCCC(=O)O)N(CCCCS(=O)(=O)[O-])c2ccccc21.[Na+].[Na+] (centres unmarked) [A24, N,N'-di(4-sulfobutyl)-3-(4-carboxybutyl)-5-sulfo-3,3',3'-trimethylindodicarbocyanine, disodium salt] | higher than 0.18 |  |  | 

The next lines start with results.

Sensitivity of record 655/ 690 ([1]; PBS) | Φ (quantum efficiency of fluorescence) ([2]; MeOH) | Φ (quantum efficiency of fluorescence) ([2]; PBS) | Compound | also measured
maximal |  |  | Cc1ccc2c(c1)C(C)(C)C(=CC=CC=CC1=[N+](CCCCS(=O)(=O)[O-])c3ccc(C)cc3C1(C)CCCCC(=O)O)N2CCCCS(=O)(=O)[O-].[Na+] (centres unmarked) [A19, N,N'-di(4-sulfobutyl)-3-(4-carboxybutyl)-3,3',3',5,5'-pentamethylindodicarbocyanine, sodium salt] | 
 | 0.17 |  | CC1(C)C(=CC=CC=CC2=[N+](CCCCS(=O)(=O)[O-])c3ccc(CCC(=O)O)cc3C2(C)C)N(CCCCS(=O)(=O)[O-])c2ccccc21.[Na+] [B5, N,N'-disulfobutyl-5-carboxyethyl-3,3,3',3'-tetramethylindodicarbocyanine, sodium salt] | molar extinction coefficient ([3]; solvent not stated): about 200,000
 | 0.19 |  | Cc1ccc2c(c1)C(C)(C)C(=CC=CC=CC1=[N+](CCCCS(=O)(=O)[O-])c3ccc(CCC(=O)O)cc3C1(C)C)N2CCCCS(=O)(=O)[O-].[Na+] [B4, N,N'-disulfobutyl-5-carboxyethyl-3,3,3',3',5'-pentamethylindodicarbocyanine, sodium salt] | 
